Assay [1] has as its system CD4+FoxP3+ lymphocytes. As to the kind of experiment: in vivo effect on CD4+FoxP3+ lymphocytes (flow cytometry). The arrangement: species or system B6 mice. The following applies: treated daily for 24 days; FoxP3 staining gated on CD4; FIG. 1B. As to the method: Further, in vivo effect of temsirolimus on CD4+FoxP3+ lymphocytes was assessed. B6 mice (5 mice per group) were treated daily with temsirolimus for 24 days, 2 doses of vaccine (complex of hsp110 and gp100), or both. FoxP3 staining was quantified with flow cytometry while gating on CD4. […] Representative results are shown from at least 2 independent experiments.
Background: A flow cytometer gives signals particle by particle.

Assay [2] deals with RENCA tumor cells. As to the kind of experiment: RENCA tumor re-challenge after treatment (antitumor immune memory). The class given is in vivo, Balb/c mice. The following applies: re-challenged with 2×10^5 RENCA cells on day 47; tumor size 11 and 18 days after; FIG. 4. As to the method:
Ten days after subcutaneous implantation of 2×10^5 tumor cells, Balb/c mice were treated with temsirolimus (30 ug/mouse daily on days 14 to 34, intraperitoneally) or temsirolimus plus CD4 depleting antibody (intraperitoneal injection of 200 μg of GK1.5 mAb, administered at day 6 and 10). Mice were re-challenged with 2×10^5 RENCA tumor cells on day 47. Naïve mouse group was also challenged with RENCA and served as a control. Tumor size was measured 11 and 18 days after the re-challenge. […] Since the mice were not being actively treated at the time of tumor re-challenge, direct antitumor effects of the therapy cannot account for the effects on tumor growth.

Assay [3] relates to C57 BL/6 or Pmel-1 mouse lymph node lymphocytes. As to the kind of experiment: [3H] thymidine incorporation assay of stimulated lymph node lymphocytes. The following applies: lymphocytes stimulated with anti-CD3 and anti-CD28 mAb or gp100 peptide, 72 hours; FIG. 1A. It is filed as cell-based. As to the method:
As has been well established, mTOR inhibitors have immune suppressing activity. For the [3H] thymidine incorporation assay, lymph nodes were harvested from naïve C57 BL/6 or Pmel-1 mouse, 3×10^5 cells/well were cultured in 96-well plates and stimulated, with or without mTOR inhibitors, for 72 hours. C57 BL/6 lymphocytes were stimulated with anti-CD3 and anti-CD28 mAb, and Pmel-1 lymphocytes were stimulated with […]. DNA synthesis was determined by incubation for 16 h with 1 μCi [3H]thymidine (Amersham Biosciences, Piscataway, N.J., USA).
(In general: Incorporation of labelled thymidine or its analogues reports DNA synthesis.)

In the case of `CO[C@H]1C[C@@H]2CC[C@@H](C)[C@@](O)(O2)C(=O)C(=O)N2CCCC[C@H]2C(=O)O[C@H]([C@H](C)C[C@@H]2CC[C@@H](OC(=O)C(C)(CO)CO)[C@H](OC)C2)CC(=O)[C@H](C)/C=C(\C)[C@@H](O)[C@@H](OC)C(=O)[C@H](C)C[C@H](C)/C=C/C=C/C=C/1C` [temsirolimus, Temsirolimus], in assay [1], the “Foxp3 positive lymphocytes (regulatory T cells)” value is “increased”. Further, the “tumor growth after re-challenge” value in assay [2] is “grew at the same rate”. For the same molecule, the “immune suppressing activity, DNA synthesis by [3H]thymidine incorporation” value in assay [3] is recorded as “nearly identical activities”.

The values above are taken from patent US10039825B2, “Combination therapy with CD4 lymphocyte depletion and MTOR inhibitors” (Cedars-Sinai Medical Center, priority 2010, dated 2018).
